The results in this text go back to patent US7063959B1, “Compositions of the SOC/CRAC calcium channel protein family” (priority 1998, dated 2006).

In this assay the test system is SOC/CRAC calcium channel. Description: Pharmacologic behavior of SOC/CRAC: calcium influx elicited by store depletion (fura-2) in SOC/CRAC-expressing cells. The assay is classed as cell-based. To be noted: SOC/CRAC expressed in RBL-2H3 mast cells by recombinant vaccinia virus; stores depleted with thapsigargin; cells pre-incubated with reagent; effect substantially the same as on endogenous thapsigargin-dependent calcium influx.

On to `CCCCCCCCCCCCC/C=C/[C@@H](O)[C@@H](N)CO` [sphingosine, Sphingosine], for which the SOC/CRAC-enhanced calcium influx result was “inhibited”.
